Here are results for five compounds from patent US20040224981A1, “Antibacterial methods and compositions” (priority 2003, published 2004).

Like-named read-outs stand apart in the source and are kept apart here.

One assay has as its system E. faecium. As to the kind of experiment: MIC against E. faecium. In kind it is cell-based. The following applies: Table 8, E. faecium ATCC 33667. The procedure:
(§1) MRSi compound 5 alone and in combination with mupirocin was tested recent clinical isolates of E. faecalis (n=28) and E. faecium (n=23). Both the acetate salt and mupirocinate salts of MRSi compound 5 maintained potent activity against vancomycin-susceptible and—resistant enterococci (Tables 8, 9, and 10).

The subject of the next assay is E. faecalis. As to the kind of experiment: MIC against E. faecalis. The class given is cell-based. As to the method:
(§2) The MRS inhibitor 4 alone and in combination with mupirocin (mupirocin salt and 1:1 combination) were tested against a collection of Gram-positive pathogens.
as §1

A further assay deals with S. pyogenes. The assay can be described thus: MIC against S. pyogenes. The class given is cell-based, Streptococcus pyogenes. As to the method: as §2
S. pyogenes is also a significant skin pathogen and 48 recent clinical isolates were tested for their susceptibility to MRSi compound 5 alone (acetate) and in combination (1:1) with mupirocin (mupirocinate).

Another assay concerns S. aureus. As to the kind of experiment: MIC against S. aureus strains and clinical isolates (broth microdilution). The class given is cell-based, Staphylococcus aureus. Particulars: for MIC90: all S. aureus strains of Table 1; for MIC Range: all S. aureus strains of Table 1 (mupirocin-susceptible and -resistant). The procedure: were tested against a collection of clinical isolates of S. aureus including strains that were multi-resistant to mupirocin and to other agents such as gentamicin and oxacillin.
The acetate and mupirocin salts of the MRS inhibitor compound 5 were tested against a collection of both low and high-level mupirocin resistant clinical isolates of S. aureus (Table 6).
The bacterial strains were tested for susceptibility to mupirocin and MRSi compound 2 using the broth microdilution method in accordance with NCCLS guideline to determine their MICs.
Briefly, the MIC and checkerboard titration assays were performed with strains in microtiter trays with cation-supplemented Mueller-Hinton broth (Difco). Inocula were prepared by suspending growth from blood agar plates in sterile saline to a density equivalent to that of a 0.5 McFarland standard and were diluted […] to produce a final inoculum of 5×10^5 CFU/ml. The trays were incubated aerobically overnight. Standard quality control strains were included with each run. Fractional inhibitory concentrations (FICs) were calculated as the MIC of drug A or B in combination/MIC of drug A or B alone, and the FIC index was obtained by adding the two FICs. FIC indices were interpreted as synergistic if the values were ≦0.5, additive or indifferent if the values were >0.5 to 4, and antagonistic if the values were >4.0.
(Dilution methods test growth across graded concentrations, often in twofold steps.)

The next assay relates to S. epidermidis. As to the kind of experiment: MIC against S. epidermidis. The class given is cell-based. The procedure: as §2
(§3) The MRS inhibitor 8 was also prepared as a fusidate and mupirocinate salt and tested for antibacterial activity against Gram-positive bacteria (Table 3). […] MRSi compound 8 alone and the fusidate and mupirocin salts were active against mupirocin-resistant S. aureus and S. epidermidis and organisms such as E. faecalis that are not susceptible to mupirocin.
(§4) The MRS inhibitor 5 acetate and mupirocin salts were tested against a collection of Gram-positive bacteria.

In another assay the test system is S. hemolyticus. The assay can be described thus: MIC against S. hemolyticus. In kind it is cell-based. The procedure:
as §2, §3, §4

[1] abbreviates: Enterococcus faecium, ATCC33667, read-out: MIC.
Setting [2] is: Enterococcus faecalis, ATCC 51299 / VRE, Table 8, E. faecalis ATCC 51299 (VRE), read-out: MIC.
The mark [3] stands for this setting: Enterococcus faecalis, Table 8, E. faecalis 1, read-out: MIC.
The mark [4] stands for this setting: Enterococcus faecalis, Table 8, E. faecalis 7, read-out: MIC.

As to `CC1(C)S[C@@H]2[C@H](NC(=O)[C@H](N)c3ccccc3)C(=O)N2[C@H]1C(=O)O` [Ampicillin, reference compound], the minimum inhibitory concentration (MIC) with E. faecium (setting [1]) turned out to be 1 µg/mL; in the assay on E. faecalis (setting [2]), 0.5 µg/mL; in the assay with E. faecalis (setting [3]), 0.5 µg/mL; in the assay on E. faecalis (setting [4]), 0.5 µg/mL.
In the case of `CC(=CC(=O)OCCCCCCCCC(=O)O)CC1OCC(CC2OC2C(C)C(C)O)C(O)C1O.Cc1c(CNCCCNc2cc(=O)c3ccccc3[nH]2)sc(Br)c1Br` (centres unmarked) [MRSi Cmpd 4 mupirocinate, N-(4,5-DIBROMO-3-METHYLTHIOPHEN-2-YLMETHYL)-N′-(1H-QUINOLIN-4-ONE)PROPANE-1,3-DIAMINE MUPIROCINATE], the minimal inhibitory concentration (MIC) in the assay with S. pyogenes (Table 2, S. pyogenes ATCC 19615) was determined as 0.25 µg/mL; with S. pyogenes (Table 2, S. pyogenes MB143 (macrolide rest.)), 0.25 µg/mL; with S. aureus (Table 2, S. aureus ATCC 29213) it was 0.5 µg/mL; in the assay on S. aureus (Table 2, S. aureus ATCC 43300 (ORSA)) it was 0.5 µg/mL; in the assay on S. aureus (Table 2, S. aureus NRS107 (mupA)), 0.25 µg/mL; with S. aureus (Table 2, S. aureus Oxford), 0.25 µg/mL. Further, the MIC in the assay on S. epidermidis (Table 2, S. epidermidis NRS6) came to 1 µg/mL; in the assay on S. epidermidis (Table 2, S. epidermidis NRS7), 0.25 µg/mL; in the assay with S. epidermidis (Table 2, S. epidermidis NRS8) it was 1 µg/mL; with S. hemolyticus (Table 2, S. hemolyticus NRS50) it was 0.5 µg/mL; in the assay on S. hemolyticus (Table 2, S. hemolyticus NRS116), 0.5 µg/mL; with E. faecalis (Table 2, E. faecalis 1), 0.12 µg/mL. Moreover, the MIC in the assay on E. faecalis (Table 2, E. faecalis 7) worked out at 0.12 µg/mL; with E. faecalis (Table 2, E. faecalis ATCC 29212) it was 0.06 µg/mL.
For `CC(=CC(=O)OCCCCCCCCC(=O)O)CC1OCC(CC2OC2C(C)C(C)O)C(O)C1O.Clc1cc(Cl)c2c(Cl)c(CNCCCNc3nc4cccnc4[nH]3)[nH]c2c1` (centres unmarked) [MRSi Cmpd 8 mupirocinate, N-(1H-IMIDAZO [4,5-B]PYRIDIN-2-YL)-N′-(3,4,6-TRICHLORO-1H—INDOL-2-YLMETHYL)-PROPANE-1,3-DIAMINE MUPIROCINATE], the MIC with S. pyogenes (Table 3, S. pyogenes ATCC 19615) is 0.25 µg/mL; in the assay with S. pyogenes (Table 3, S. pyogenes MB143 (macrolide rest.)), 0.12 µg/mL; in the assay with S. aureus (Table 3, S. aureus ATCC 29213), 0.12 µg/mL; in the assay on S. aureus (Table 3, S. aureus ATCC 43300 (ORSA)), 0.12 µg/mL; with S. aureus (Table 3, S. aureus NRS107 (mupA)) it was 0.12 µg/mL; in the assay with S. aureus (Table 3, S. aureus Oxford), 0.12 µg/mL. In addition, the MIC with S. epidermidis (Table 3, S. epidermidis NRS6) was 0.5 µg/mL; in the assay with S. epidermidis (Table 3, S. epidermidis NRS7), 0.12 µg/mL; in the assay with S. epidermidis (Table 3, S. epidermidis NRS8), 0.25 µg/mL; with S. hemolyticus (Table 3, S. hemolyticus NRS50) it was 0.12 µg/mL; in the assay with S. hemolyticus (Table 3, S. hemolyticus NRS116), 0.25 µg/mL; in the assay on E. faecalis (Table 3, E. faecalis 1) it was 0.06 µg/mL. Also, the MIC worked out at 0.12 µg/mL in the assay with E. faecalis (Table 3, E. faecalis 7) and 0.12 µg/mL in the assay with E. faecalis (Table 3, E. faecalis ATCC 29212).
`O=c1cc(NC[C@H]2CCC[C@@H]2NCc2ccc(Cl)c(Cl)c2)[nH]c2ccccc12` [MRSi cmpd 3, 2-{[(1R, 2S)-2-(3,4-Dichlorobenzylamino)cyclopentylmethyl]amino}-1H-quinolin-4-one]: the minimum inhibitory concentration (MIC) in the assay on E. faecium (setting [1]) came to 0.03 µg/mL; with S. aureus (Staphylococcus aureus, ATCC43300, S. aureus ATCC 43300 (ORSA), read-out: MIC), 4 µg/mL; with S. aureus (Staphylococcus aureus, NRS 1 / VISA, S. aureus NRS1 (VISA), read-out: MIC), 4 µg/mL; in the assay with S. aureus (Staphylococcus aureus, NRS107, S. aureus NRS107 (HL Mup rest.), read-out: MIC) it was 1 µg/mL; in the assay on S. aureus (Staphylococcus aureus, S. aureus 10-420 (LL Mup. Rest.), read-out: MIC) it was 2 µg/mL; in the assay on S. aureus (Staphylococcus aureus, S. aureus 14-354 (LL Mup. Rest.), read-out: MIC) it was 4 µg/mL. Also, the MIC in the assay with S. aureus (Staphylococcus aureus, S. aureus 25-670 (HL Mup. Rest.), read-out: MIC) amounted to 4 µg/mL; in the assay with S. aureus (Staphylococcus aureus, S. aureus 31-1334 (LL Mup Rest.), read-out: MIC) it was 2 µg/mL; in the assay on S. aureus (Staphylococcus aureus, S. aureus 36-1298 (LL Mup. Rest.), read-out: MIC), 1 µg/mL; in the assay on S. aureus (Staphylococcus aureus, S. aureus 87-2797 (HL Mup. Rest.), read-out: MIC), 4 µg/mL; with S. aureus (Staphylococcus aureus, S. aureus 87-2797 (Mup. Susc.), read-out: MIC), 2 µg/mL; in the assay on S. aureus (Staphylococcus aureus, S. aureus 101-100 (Mup. Susc.), read-out: MIC), 2 µg/mL. Further, the MIC amounted to 2 µg/mL in the assay with S. aureus (Staphylococcus aureus, S. aureus LZ1 (HL Mup rest.), read-out: MIC); 2 µg/mL in the assay with S. aureus (Staphylococcus aureus, S. aureus LZ6 (HL Mup rest.), read-out: MIC); 4 µg/mL with S. aureus (Staphylococcus aureus, S. aureus LZ8 (LL Mup. Rest.), read-out: MIC); 2 µg/mL in the assay on S. aureus (Staphylococcus aureus, S. aureus LZ9, read-out: MIC); 2 µg/mL in the assay on S. aureus (Staphylococcus aureus, S. aureus LZ10, read-out: MIC); 2 µg/mL in the assay on S. aureus (Staphylococcus aureus, S. aureus Miles Hall, read-out: MIC). Moreover, the minimal inhibitory concentration (MIC) with S. aureus (Staphylococcus aureus, S. aureus Oxford, read-out: MIC) worked out at 2 µg/mL; with E. faecalis (setting [2]) it was 0.5 µg/mL; with E. faecalis (setting [3]) it was 0.12 µg/mL; in the assay with E. faecalis (setting [4]) it was 0.5 µg/mL. Further, the MIC90 with S. aureus (Staphylococcus aureus, read-out: MIC 90) turned out to be 4 µg/mL. For the same compound, in the assay with S. aureus, the “MIC Range” value is 1 to 4 µg/mL.
Consider `O=c1cc(NCCCNC2CCNc3c(Br)cc(Br)cc32)[nH]c2ccccc12` (centres unmarked) [MRSi cmpd 1, 2-[3-(6,8-Dibromo-2,3,4,5-tetrahydroquinolin-4-ylamino)prop-1-ylamino]-1H-quinolin-4-one], for which the minimal inhibitory concentration (MIC) result with E. faecium is “≦0.004 μg/mL”; in the assay with S. aureus (S. aureus 10-420 (LL Mup. Rest.)), 0.12 µg/mL; in the assay with S. aureus (S. aureus 14-354 (LL Mup. Rest.)), 0.25 µg/mL; in the assay on S. aureus (S. aureus 25-670 (HL Mup. Rest.)) it was 0.12 µg/mL; with S. aureus (S. aureus 31-1334 (LL Mup Rest.)) it was 0.12 µg/mL; with S. aureus (S. aureus 36-1298 (LL Mup. Rest.)), 0.015 µg/mL. Moreover, the minimal inhibitory concentration (MIC) stood at 0.12 µg/mL with S. aureus (S. aureus 87-2797 (HL Mup. Rest.)); 0.12 µg/mL with S. aureus (S. aureus 87-2797 (Mup. Susc.)); 0.06 µg/mL in the assay with S. aureus (S. aureus 101-100 (Mup. Susc.)); 0.25 µg/mL in the assay with S. aureus (S. aureus ATCC 43300 (ORSA)); 0.06 µg/mL in the assay with S. aureus (S. aureus LZ1 (HL Mup rest.)); 0.12 µg/mL in the assay with S. aureus (S. aureus LZ6 (HL Mup rest.)). In addition, the MIC in the assay with S. aureus (S. aureus LZ8 (LL Mup. Rest.)) stood at 0.06 µg/mL; in the assay with S. aureus (S. aureus LZ9), 0.06 µg/mL; with S. aureus (S. aureus LZ10), 0.12 µg/mL; with S. aureus (S. aureus Miles Hall), 0.12 µg/mL; in the assay on S. aureus (S. aureus NRS1 (VISA)), 0.12 µg/mL; with S. aureus (S. aureus NRS107 (HL Mup rest.)), 0.03 µg/mL. For the same compound, the MIC is 0.12 µg/mL with S. aureus (S. aureus Oxford); “≦0.004 μg/mL” in the assay on E. faecalis (Table 8, E. faecalis 1); 0.015 µg/mL in the assay on E. faecalis (Table 8, E. faecalis 7); 0.015 µg/mL in the assay on E. faecalis (Table 8, E. faecalis ATCC 51299 (VRE)). In addition, the “MIC90” value in the assay on S. aureus stood at 0.25 µg/mL. Moreover, the “MIC Range” value in the assay on S. aureus was in the range of 0.015 to 0.12 µg/mL.

In general, MIC refers to the lowest concentration that inhibits growth of the organism.
